Data taken from the supplement of paper PMC10307832.

What was measured:
Test in all cases: relative viability (nuclei count vs DMSO), 5 days (fraction); higher = more cells survive
[1] = compound: O=C(C[C@H]1NCCC[C@@H]1O)Cn1cnc2cc(Br)c(Cl)cc2c1=O (racemic) [Halofuginone] + O=C(c1cc(Cc2n[nH]c(=O)c3ccccc23)ccc1F)N1CCN(C(=O)C2CC2)CC1 [Olaparib] (partner 8 µM)
In short: (§1)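 Lung cancer cell lines were seeded in 1536-well plates and dosed by pin tool the next day, with either a single drug or a fixed anchor-drug dose combined with five library-drug doses (not always all listed) spaced in √10 steps. Five days later, one step fixed the cells and stained their nuclei (final 0.05% Triton X-100, 1% formaldehyde, 1 ug/ml Hoechst), and nuclei were counted on 4× images. Relative viability is the nuclei count in treated wells divided by the count in vehicle wells, and each value is the median of duplicate plates.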

[2] = compound: O=C(C[C@H]1NCCC[C@@H]1O)Cn1cnc2cc(Br)c(Cl)cc2c1=O (racemic) [Halofuginone] + N=C(N)NC(=N)NCCc1ccccc1 [Phenformin] (partner 250 µM)
In short: as §1

[3] = compound: Nc1ncn([C@H]2C[C@H](O)[C@@H](CO)O2)c(=O)n1 [Decitabine] + CC(=O)Nc1cccc(-n2c(=O)n(C3CC3)c(=O)c3c(Nc4ccc(I)cc4F)n(C)c(=O)c(C)c32)c1 [Trametinib] (partner 0.02 µM)
In short: as §1

[4] = compound: Nc1ncn([C@H]2C[C@H](O)[C@@H](CO)O2)c(=O)n1 [Decitabine] + COc1cccc2cc(-c3nc([C@H]4CC[C@H](C(=O)O)CC4)n4ncnc(N)c34)[nH]c12 [OSI-027] (partner 0.5 µM)
In short: as §1

Cell Line | relative viability ([1]; first compound 0.001 µM) | relative viability ([1]; first compound 0.003162 µM) | relative viability ([1]; first compound 0.01 µM) | relative viability ([1]; first compound 0.03162 µM) | relative viability ([1]; first compound 0.1 µM) | relative viability ([2]; first compound 0.001 µM) | relative viability ([2]; first compound 0.003162 µM) | relative viability ([2]; first compound 0.01 µM) | relative viability ([2]; first compound 0.03162 µM) | relative viability ([2]; first compound 0.1 µM) | relative viability ([3]; first compound 0.04 µM) | relative viability ([3]; first compound 0.1265 µM) | relative viability ([3]; first compound 0.4 µM) | relative viability ([3]; first compound 1.265 µM) | relative viability ([3]; first compound 4 µM) | relative viability ([4]; first compound 0.04 µM) | relative viability ([4]; first compound 0.1265 µM) | relative viability ([4]; first compound 0.4 µM) | relative viability ([4]; first compound 1.265 µM) | relative viability ([4]; first compound 4 µM)
NCI-H441 | 0.591 | 0.537 | 0.56 | 0.455 | 0.238 | 0.976 | 1.05 | 0.87 | 0.839 | 0.564 | 0.317 | 0.281 | 0.255 | 0.183 | 0.206 | 0.415 | 0.441 | 0.246 | 0.261 | 0.255
NCI-H460 | 0.417 | 0.416 | 0.466 | 0.415 | 0.083 | 0.512 | 0.549 | 0.543 | 0.493 | 0.126 | 0.173 | 0.229 | 0.214 | 0.109 | 0.13 | 0.603 | 0.848 | 0.598 | 0.308 | 0.215
NCI-H520 | 0.324 | 0.291 | 0.303 | 0.378 | 0.187 | 0.606 | 0.78 | 0.569 | 0.582 | 0.193 | 0.529 | 0.349 | 0.424 | 0.307 | 0.266 | 0.309 | 0.242 | 0.234 | 0.215 | 0.21
NCI-H522 | 0.621 | 0.665 | 0.631 | 0.672 | 0.628 | 0.73 | 0.653 | 0.649 | 0.648 | 0.657 | 0.718 | 0.714 | 0.547 | 0.537 | 0.513 | 0.695 | 0.827 | 0.561 | 0.609 | 0.582
NCI-H596 | 0.756 | 0.737 | 0.655 | 0.752 | 0.549 | 0.732 | 0.84 | 0.742 | 0.938 | 0.569 | 0.881 | 0.744 | 0.509 | 0.575 | 0.542 | 0.606 | 0.793 |  | 0.581 | 0.477
NCI-H647 | 0.637 | 0.746 | 0.517 | 0.442 | 0.11 | 0.659 | 0.642 | 0.544 | 0.368 | 0.195 | 0.589 | 0.595 | 0.43 | 0.246 | 0.138 | 0.648 | 0.549 | 0.403 | 0.152 | 0.201
NCI-H650 | 0.395 | 0.389 | 0.408 | 0.36 | 0.286 | 0.507 | 0.501 | 0.437 | 0.424 | 0.374 | 0.717 | 0.561 | 0.418 | 0.319 | 0.259 | 0.462 | 0.454 | 0.306 | 0.291 | 0.276
NCI-H661 | 0.797 | 0.74 | 0.671 | 0.666 | 0.566 | 0.296 | 0.298 | 0.295 | 0.274 | 0.284 | 0.502 | 0.577 | 0.508 | 0.392 | 0.404 | 0.55 | 0.628 | 0.474 | 0.374 | 0.346
NCI-H727 | 0.79 | 0.683 | 0.787 | 0.727 | 0.518 | 0.784 | 0.577 | 0.422 | 0.628 | 0.317 | 0.396 | 0.377 | 0.344 | 0.372 | 0.363 | 0.485 | 0.65 | 0.477 | 0.57 | 0.426
NCI-H838 | 0.817 | 0.784 | 0.734 | 0.527 | 0.107 | 0.668 | 0.713 | 0.525 | 0.347 | 0.199 | 0.476 | 0.397 | 0.237 | 0.283 | 0.279 | 0.359 | 0.324 | 0.279 | 0.273 | 0.29
NCI-H1355 | 0.785 | 0.805 | 0.611 | 0.754 | 0.7 | 0.456 | 0.503 | 0.429 | 0.441 | 0.407 | 0.371 | 0.382 | 0.337 | 0.224 | 0.248 | 0.352 | 0.398 | 0.289 | 0.288 | 0.267
NCI-H1395 | 0.462 | 0.469 | 0.471 | 0.433 | 0.388 | 0.457 | 0.464 | 0.442 | 0.444 | 0.334 | 0.793 | 0.906 | 0.828 | 0.655 | 0.607 | 0.483 | 0.529 | 0.516 | 0.455 | 0.492
NCI-H1437 | 0.649 | 0.653 | 0.619 | 0.616 | 0.456 | 0.329 | 0.308 | 0.3 | 0.297 | 0.258 | 0.444 | 0.412 | 0.404 | 0.337 | 0.342 | 0.717 | 0.732 | 0.495 | 0.382 | 0.3
NCI-H1650 | 0.95 | 0.806 | 0.836 | 0.677 | 0.538 | 0.495 | 0.467 | 0.413 | 0.442 | 0.188 | 0.369 | 0.642 | 0.536 | 0.326 | 0.287 | 0.422 | 0.495 | 0.321 | 0.285 | 0.341
NCI-H1651 | 0.177 | 0.194 | 0.2 | 0.178 | 0.176 | 0.377 | 0.34 | 0.333 | 0.35 | 0.276 | 0.787 | 0.757 | 0.692 | 0.622 | 0.487 | 0.586 | 0.842 | 0.777 | 0.573 | 0.478
NCI-H1666 | 0.758 | 0.785 | 0.714 | 0.789 | 0.705 | 0.587 | 0.612 | 0.562 | 0.56 | 0.475 | 0.785 | 0.873 | 0.713 | 0.783 | 0.836 | 0.785 | 0.82 | 0.742 | 0.595 | 0.676
